Data as given in publication PMC3158675, “Effective inhibitors of the essential kinase PknB and their potential as anti-mycobacterial agents” (Tuberculosis (Edinburgh, Scotland), 2011).

Experiments:
Format in all cases: cell-based
M. smegmatis fbpA mutant = settings: mutant compared with wild type
M. tuberculosis [1] = assay: Alamar blue MIC with efflux pump inhibitors reserpine and verapamil; settings: reserpine or verapamil at 20 or 40 μg/ml
M. tuberculosis [2] = assay: Alamar blue MIC with cell wall weakening agent ethambutol at 0.5 MIC

| SMILES | Improvement of MIC in M. smegmatis fbpA mutant (M. smegmatis fbpA mutant) | also measured |
| --- | --- | --- |
| CC[C@H]1OC(=O)[C@H](C)[C@@H](O[C@H]2C[C@@](C)(OC)[C@@H](O)[C@H](C)O2)[C@H](C)[C@@H](O[C@@H]2O[C@H](C)C[C@H](N(C)C)[C@H]2O)[C@](C)(O)C[C@@H](C)C(=O)[C@H](C)[C@@H](O)[C@]1(C)O [erythromycin] | 8 fold | – |
| CC[C@@H](CO)NCCN[C@@H](CC)CO [ethambutol] | not improved | – |
| CC[n+]1c(-c2ccccc2)c2cc(N)ccc2c2ccc(N)cc21 [ethidium bromide] | – | Decrease of MIC with efflux pump inhibitor (M. tuberculosis [1]): 4 fold |
| CO[C@H]1/C=C/O[C@@]2(C)Oc3c(C)c(O)c4c(O)c(c(/C=N/N5CCN(C)CC5)c(O)c4c3C2=O)NC(=O)/C(C)=C\C=C\[C@H](C)[C@H](O)[C@@H](C)[C@@H](O)[C@@H](C)[C@H](OC(C)=O)[C@@H]1C [rifampicin] | – | Reduction of MIC in the presence of sub-inhibitory ethambutol (M. tuberculosis [2]): 4 fold |
| [H]/N=C(/N)N[C@H]1[C@H](O)[C@@H](O)[C@H](O[C@@H]2O[C@@H](C)[C@](O)(C=O)[C@H]2O[C@@H]2O[C@@H](CO)[C@H](O)[C@@H](O)[C@@H]2NC)[C@@H](N/C(N)=N\[H])[C@@H]1O [streptomycin] | not improved | – |
| CN[C@H](CC(C)C)C(=O)N[C@H]1C(=O)N[C@@H](CC(N)=O)C(=O)N[C@H]2C(=O)N[C@H]3C(=O)N[C@H](C(=O)N[C@H](C(=O)O)c4cc(O)cc(O)c4-c4cc3ccc4O)[C@H](O)c3ccc(c(Cl)c3)Oc3cc2cc(c3O[C@@H]2O[C@H](CO)[C@@H](O)[C@H](O)[C@H]2O[C@H]2C[C@](C)(N)[C@H](O)[C@H](C)O2)Oc2ccc(cc2Cl)[C@H]1O [vancomycin] | 16 fold | – |
